Assay results as given in article PMC6279743, “A small molecule ApoE4-targeted therapeutic candidate that normalizes sirtuin 1 levels and improves cognition in an Alzheimer’s disease mouse model” (Scientific Reports, 2018).

Columns and labels:
[1] = Brain compound levels 2 hours after the last dose in efficacy studies; assay type: in vivo, mice
Method: Mice were euthanized and blood/tissues collected 2 hrs after dosing on day 28 by the method described above for PK. Frontal and parietal cortices (FrCx and PtCx, respectively), as well as the remaining brain tissue, from individual mice were dissected, snap frozen on dry ice, and stored at −80 °C. Plasma samples and the brain tissue minus the FrCx and PtCx (the ‘rest’) from all compound-treated mice were sent to IAS for compound level analysis as described above.
Mice were euthanized and blood/tissues collected 2 hrs after dosing on Day 25 by the method described above for PK. FrCx, PtCx, and hippocampi (Hip) were collected from all mice for SirT1 and sAPPα level determination by AlphaLISA. Protein concentration was determined using a Bradford protein assay. Brain and plasma levels of A03 were determined at IAS.
Mice were euthanized and blood/tissues collected 2 hrs after dosing on Day 56 by the method described above for PK. Hip and FrCx were collected for analysis of SirT1, sAPPα, and Aβ1-42 levels by AlphaLISA. For Aβ1-42 the Perkin Elmer kit AL276C was used. Protein concentrations were determined using the Bradford protein assay. The sAPPα and sAPPβ AlphaLISAs were similar to the SirT1 AlphaLISA (see Supplementary Fig. S3) but the former uses anti-sAPPα antibody AF1168 and 2B3-biotinylated antibodies and the latter an anti-sAPPβ antibody (IBL Cat. #18957) and an anti-N-terminal APP antibody (R&D Systems AF1168) instead of anti-SirT1 antibodies. Brain tissue and plasma were sent to IAS for A03 level analysis.

[2] = Pharmacokinetics after oral delivery in mice; assay type: in vivo; details: oral 10 mg/kg
Method: All in vivo experiments described were carried out in strict accordance with good animal practice according to NIH recommendations. All procedures for animal use were approved by the Animal Research Committee (ARC) at UCLA and under an approved ARC protocol. Pharmacokinetic (PK) analysis[68]–[70] consisted of oral delivery of compounds (10 mg/Kg) to individual mice followed by euthanasia at 1, 2, 4, 6, and 8 hours post-dose by ketamine/xylazine over-anesthesia, blood collection by cardiac puncture, and transcardial saline perfusion. Whole blood was centrifuged at 5000 rpm for 10 min. in a 5 °C centrifuge to isolate plasma and the plasma stored at −20 °C before analysis. Whole brains were collected, dissected down the midline, snap frozen on dry ice, and stored at −80 °C before analysis. The levels of the compounds in both plasma and brain tissue were determined by a quantitative LC/MS/MS methodology at Integrated Analytical Solutions (IAS, Berkeley, CA). Plasma samples were precipitated with an acetonitrile: methanol (1:1) cocktail containing an internal standard. Brain samples were homogenized directly in ethyl acetate by the liquid-liquid method. The resulting supernatant was evaporated to dryness and subjected to LC/MS/MS analysis. The Tmax, Cmax, brain-to-plasma ratios and brain levels were then calculated using PK Solutions software (SummitPK).

CC(N)C(=O)OC(C)(C)Cc1ccc(Cl)cc1 (stereo not drawn) [A03, alaproclate]
Brain level 2 hours after the last dose ([1]; 25-day study, oral 40 mg/kg/day, n = 12): above 2000 n/g | concentration at 2 h ([1]; E4FAD, mouse, brain, 56-day study, oral 40 mg/kg/day, n = 16, read-out: Brain level 2 hours after the last dose): ~700 ng/g | Brain levels 2 hours after the last dose, E1 vs A03 ([1]; pilot study, SQ 10 mg/kg/day, 28 days, n = 8): slightly higher | Tmax ([2]; mouse, brain, n = 1 per time point): 1 h | AUC ([2]; mouse, plasma, 1-8 hours): 266 ng·h/mL | AUC brain ([2]; 1-8 hours): 1336 ng·h/g
